Experimental data as given in patent US20100137275A1 (IPSEN PHARMA S.A.S., priority 2007, published 2010).

Assays:
[1] = molecular target: T1, purified recombinant Cdc25-C enzyme (MBP-Cdc25C protein) (Homo sapiens, UniProt P30307); assay: Phosphatase activity of the purified recombinant Cdc25C enzyme (OMFP dephosphorylation, fluorescence); format: biochemical; details: OMFP 500 μM, 4 hours at 30° C.
T1 construct: made in house
T1 sequence (P30307 1-473): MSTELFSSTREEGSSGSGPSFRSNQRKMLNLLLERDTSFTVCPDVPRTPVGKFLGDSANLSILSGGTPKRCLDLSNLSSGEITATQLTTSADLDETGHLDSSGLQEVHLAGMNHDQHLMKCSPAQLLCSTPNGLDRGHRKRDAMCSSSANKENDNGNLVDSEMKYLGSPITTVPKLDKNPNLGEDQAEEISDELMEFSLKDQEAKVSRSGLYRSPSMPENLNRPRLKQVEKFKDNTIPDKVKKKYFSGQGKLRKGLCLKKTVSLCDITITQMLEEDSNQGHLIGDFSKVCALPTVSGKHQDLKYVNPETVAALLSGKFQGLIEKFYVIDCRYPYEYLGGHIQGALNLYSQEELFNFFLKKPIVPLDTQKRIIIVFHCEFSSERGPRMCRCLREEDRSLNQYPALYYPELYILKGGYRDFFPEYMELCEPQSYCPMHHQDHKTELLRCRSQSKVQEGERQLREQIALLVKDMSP
Description: The phosphatase activity of the MBP-Cdc25C protein is evaluated through its dephosphorylation of 3-O-methylfluorescein-phosphate (OMFP) to form 3-O-methylfluorescein (OMF), determining the fluorescence of the reaction product at 475 nm. This assay can be used to identify inhibitors of the recombinant Cdc25 enzyme. The preparation of the MBP-Cdc25C fusion protein is described in patent application PCT WO 01/44467.
The reaction is performed in 384-well plates in a final volume of 50 μl. The MBP-Cdc25C protein (prepared as described hereinabove) is stored in the following elution buffer: 20 mM Tris-HCl pH 7.4; 250 mM NaCl; 1 mM EDTA; 1 mM dithiothreitol (DTT); 10 mM maltose. It is diluted to a concentration of 60 μM in the following reaction buffer: 50 mM Tris-HCl pH 8.2; 50 mM NaCl; 1 mM DTT; 20% glycerol. The background noise is determined using with the buffer without addition of the enzyme. The products are tested at decreasing concentrations from 40 μM. The reaction is initiated by the addition of a solution OMFP to a final concentration of 500 μM (prepared immediately before use from a 12.5 mM stock solution in 100% DMSO (Sigma #M2629)). After 4 hours at 30° C. in a disposable 384-well plate, the fluorescence measured at OD 475 nm is read on a Victor^2 plate reader (EGG-Wallac). The concentration that produces 50% inhibition of the enzyme reaction is calculated from three independent experiments. Only the values that fall within the linear part of the sigmoid curve are used for the linear regression analysis.

Compound	IC50 [1] [µM]	melting point [°C]
CN(CCNC(=O)NCc1ccccc1)CCNc1cc(N2CCCC2)nc(N2CCCC2)n1 [Example 8, N-benzyl-N′-{2-[{2-[(2,6-dipyrrolidin-1-ylpyrimidin-4-yl)amino]ethyl}(methyl)amino]ethyl}urea]	≤ 5	87 to 89
Cc1cc(C)nc(NS(=O)(=O)c2ccc(NC(=S)NCCN(C)CCNc3cc(N4CCCC4)nc(N4CCCC4)n3)cc2)n1 [Example 50, N-(4,6-dimethylpyrimidin-2-yl)-4-{[({2-[{2-[(2,6-dipyrrolidin-1-ylpyrimidin-4-yl)amino]ethyl}(methyl)amino]ethyl}amino)carbonothioyl]amino}benzenesulfonamide]	≤ 1	129
NCCCCCNc1cc(N2CCCC2)nc(N2CCCC2)n1 [Example 4, N-(2,6-dipyrrolidin-1-ylpyrimidin-4-yl)pentane-1,5-diamine]	≤ 5	
CCN(CC)CCCCCNc1cc(N2CCCC2)nc(N2CCCC2)n1 [Example 6, N′-(2,6-dipyrrolidin-1-ylpyrimidin-4-yl)-N,N-diethylpentane-1,5-diamine]	≤ 5	
CCNC(=O)NCCN(C)CCNc1cc(N2CCCC2)nc(N2CCCC2)n1 [Example 18]	≤ 5	
CN(CCNC(=O)NCc1ccco1)CCNc1cc(N2CCCC2)nc(N2CCCC2)n1 [Example 14, N-{2-[{2-[(2,6-dipyrrolidin-1-ylpyrimidin-4-yl)amino]ethyl}(methyl)amino]ethyl}-N′-(2-furylmethyl)urea]	≤ 1	103 to 105
CN(CCN)CCNc1cc(N2CCCC2)nc(N2CCCC2)n1 [Example 1, N-{2-[(2,6-dipyrrolidin-1-ylpyrimidin-4-yl)amino]ethyl}-N-methylethane-1,2-diamine]	≤ 5	67 to 69
CN(CCNC(=S)Nc1cc(F)cc(F)c1)CCNc1cc(N2CCCC2)nc(N2CCCC2)n1 [Example 41, N-(3,5-difluorophenyl)-N′-{2-[{2-[(2,6-dipyrrolidin-1-ylpyrimidin-4-yl)amino]ethyl}(methyl)amino]ethyl}thiourea]	≤ 5	124 to 126
CN(CCNC(=S)Nc1c(F)c(F)c(F)c(F)c1F)CCNc1cc(N2CCCC2)nc(N2CCCC2)n1 [Example 34, N-{2-[{2-[(2,6-dipyrrolidin-1-ylpyrimidin-4-yl)amino]ethyl}(methyl)amino]ethyl}-N′-(pentafluorophenyl)thiourea]	≤ 5	92 to 94
CN(CCNC(=S)Nc1ccc(F)c(F)c1)CCNc1cc(N2CCCC2)nc(N2CCCC2)n1 [Example 67, N-(3,4-difluorophenyl)-N′-{2-[{2-[(2,6-dipyrrolidin-1-ylpyrimidin-4-yl)amino]ethyl}(methyl)amino]ethyl}thiourea]	≤ 1	133 to 135
CN(CCNC(=S)Nc1ccc(F)cc1F)CCNc1cc(N2CCCC2)nc(N2CCCC2)n1 [Example 40, N-(2,4-difluorophenyl)-N′-{2-[{2-[(2,6-dipyrrolidin-1-ylpyrimidin-4-yl)amino]ethyl}(methyl)amino]ethyl}thiourea]	≤ 1	124 to 126
S=C(NCCCCCNc1cc(N2CCCC2)nc(N2CCCC2)n1)Nc1ccc(Cl)cc1 [Example 58, N-(4-chlorophenyl)-N′-{5-[(2,6-dipyrrolidin-1-ylpyrimidin-4-yl)amino]pentyl}thiourea]	≤ 5	80 to 82
CN(CCNC(=S)Nc1ccc(C#N)cc1)CCNc1cc(N2CCCC2)nc(N2CCCC2)n1 [Example 77, N-(4-cyanophenyl)-N′-{2-[{2-[(2,6-dipyrrolidin-1-ylpyrimidin-4-yl)amino]ethyl}(methyl)amino]ethyl}thiourea]	≤ 1	107 to 109
CN(CCNC(=O)Nc1ccc(Cl)c(C(F)(F)F)c1)CCNc1cc(N2CCCC2)nc(N2CCCC2)n1 [Example 7, N-[4-chloro-3-(trifluoromethyl)phenyl]-N′-{2-[{2-[(2,6-dipyrrolidin-1-ylpyrimidin-4-yl)amino]ethyl}(methyl)amino]ethyl}urea]	≤ 1	
CN(CCNC(=O)c1cnc2ccccc2n1)CCNc1cc(N2CCCC2)nc(N2CCCC2)n1 [Example 82, N-{2-[{2-[(2,6-dipyrrolidin-1-ylpyrimidin-4-yl)amino]ethyl}(methyl)amino]ethyl}quinoxaline-2-carboxamide]		146 to 148
CCNC(=S)NCCN(C)CCNc1cc(N2CCCC2)nc(N2CCCC2)n1 [Example 28, N-{2-[{2-[(2,6-dipyrrolidin-1-ylpyrimidin-4-yl)amino]ethyl}(methyl)amino]ethyl}-N′-ethylthiourea]	≤ 1	82 to 84
CCN(CC)c1cc(NCCN(C)CCNC(=S)Nc2ccc(Cl)cc2)nc(N(CC)CC)n1 [Example 71, N-{2-[(2-{[2,6-bis(diethylamino)pyrimidin-4-yl]amino}ethyl)(methyl)amino]ethyl}-N′-(4-chlorophenyl)thiourea]	≤ 1	
CN(CCNC(=S)Nc1ccc(Cl)cc1)CCNc1cc(N2CCCC2)nc(N2CCCC2)n1.Cl		211 to 213
CN(CCNC(=S)Nc1ccc(Sc2ncc(C(F)(F)F)cc2Cl)cc1)CCNc1cc(N2CCCC2)nc(N2CCCC2)n1 [Example 52, N-(4-{[3-chloro-5-(trifluoromethyl)pyridin-2-yl]thio}phenyl)-N′-{2-[{2-[(2,6-dipyrrolidin-1-ylpyrimidin-4-yl)amino]ethyl}(methyl)amino]ethyl}thiourea]	≤ 1	97 to 99
CNS(=O)(=O)c1ccc(NC(=S)NCCN(C)CCNc2cc(N3CCCC3)nc(N3CCCC3)n2)cc1 [Example 59, 4-{[({2-[{2-[(2,6-dipyrrolidin-1-ylpyrimidin-4-yl)amino]ethyl}(methyl)amino]ethyl}amino)carbonothioyl]amino}-N-methylbenzenesulfonamide]	≤ 1	102 to 104
CN(CCNC(=S)Nc1ccc(Cl)cc1)CCNc1cc(N2CCOCC2)nc(N2CCOCC2)n1 [Example 66, N-(4-chlorophenyl)-N′-{2-[{2-[(2,6-dimorpholin-4-ylpyrimidin-4-yl)amino]ethyl}(methyl)amino]ethyl}thiourea]		81 to 83
COc1ccc(C(=O)NC(=S)NCCN(C)CCNc2cc(N3CCCC3)nc(N3CCCC3)n2)cc1 [Example 80, N-[({2-[{2-[(2,6-dipyrrolidin-1-ylpyrimidin-4-yl)amino]ethyl}(methyl)amino]ethyl}amino)carbonothioyl]-4-methoxybenzamide]	≤ 5	171 to 173
CNCCCN(C)CCCN(C)c1cc(N2CCCC2)nc(N2CCCC2)n1 [Example 3, N-(2,6-dipyrrolidin-1-ylpyrimidin-4-yl)-N,N′-dimethyl-N′-[3-(methylamino)propyl]propane-1,3-diamine]	≤ 5	
CCN(CCN(C)CCNc1cc(N2CCCC2)nc(N2CCCC2)n1)C(N)=O [Example 18, N-{2-[{2-[(2,6-dipyrrolidin-1-ylpyrimidin-4-yl)amino]ethyl}(methyl)amino]ethyl}-N-ethylurea]		127 to 129
CN(CCNc1cc(N2CCCC2)nc(N2CCCC2)n1)CCN(C(N)=O)[C@@H]1CCc2ccccc2C1 [Example 11, N-{2-[{2-[(2,6-dipyrrolidin-1-ylpyrimidin-4-yl)amino]ethyl}(methyl)amino]ethyl}-N-[(2R)-1,2,3,4-tetrahydronaphthalen-2-yl]urea]		93 to 95
CN(CCCN)CCCNc1cc(N2CCCC2)nc(N2CCCC2)n1 [Example 2, N-(3-aminopropyl)-N′-(2,6-dipyrrolidin-1-ylpyrimidin-4-yl)-N-methylpropane-1,3-diamine]	≤ 5	
FC(F)(F)c1cc(NC(=S)NCCCCCNc2cc(N3CCCC3)nc(N3CCCC3)n2)ccc1Cl [Example 57, N-[4-chloro-3-(trifluoromethyl)phenyl]-N′-{5-[(2,6-dipyrrolidin-1-ylpyrimidin-4-yl)amino]pentyl}thiourea]		85 to 87
CN(C)CCCCCNc1cc(N2CCCC2)nc(N2CCCC2)n1 [Example 5, N′-(2,6-dipyrrolidin-1-ylpyrimidin-4-yl)-N,N-dimethylpentane-1,5-diamine]	≤ 5	
CN(CCCNC(=O)Nc1ccc(Cl)c(C(F)(F)F)c1)CCCNc1cc(N2CCCC2)nc(N2CCCC2)n1.Cl		115 to 117
